# Data: patent US20220299532A1, “CORRECTING PROTEIN MISFOLDING IN DIABETES” (Sanford Burnham Prebys Medical Discovery Institute, priority 2019, published 2022)
# How the values were obtained:
# mouse pancreatic islets = experiment: Proinsulin disulfide-linked / HMW complexes in murine islets, SDS-PAGE immunoblot (CCI-17); assay type: cell-based
# Description: Mouse pancreatic islet isolation: Mice were euthanized by CO2 narcosis as per an approved institutional animal protocol. The pancreas was rapidly excised, minced in ice-cold PBS, and digested in 4 mL of Collagenase P (Roche) 1.5 mg/mL in Hank's Balanced Salt Solution containing calcium and magnesium, in a shaking water bath for 30 min at 37° C. The digestion was terminated in 40 mL ice-cold PBS (—Ca/—Mg) and the digested tissue washed twice in this buffer. The sedimented tissue digest was then overlaid with 3 mL Histopaque-1077 and further overlayed with 6 mL ice cold PBS (—Ca/—Mg) before centrifugation (3000 rpm for 20 min at 10° C. with no brake) and transfer of the midlayer of the Histopaque gradient to a 15 ml tube for two further washes in ice-cold PBS. Finally, the sedimented tissue was transferred to a petri dish in ice-cold RPMI-1640 buffer and islets hand-picked to purity. In experiments involving drug or compound treatment, the islets were finally recovered overnight in RPMI-1640 supplemented with 10% fetal bovine serum (FBS), 10 mM HEPES pH 7.35, 1 mM sodium pyruvate and 0.05 mM beta-mercaptoethanol, in a humidified 5% CO2 incubator at 37° C. For some experiments, islets were snap frozen in liquid nitrogen and stored frozen prior to analysis.
# (§1) Lysis of cells or islets for SDS-PAGE and electrotransfer: After removal of media, cells were washed once with ice-cold PBS and lysed in RIPA buffer (10 mM Tris pH 7.4, 150 mM NaCl, 0.1% SDS, 1% NP40, 2 mM EDTA) plus protease inhibitor/phosphatase inhibitor cocktail (Sigma-Aldrich) or directly in Laemmli gel sample buffer. Lysates in RIPA buffer were immediately spun at 10,000 rpm for 10 min at 4° C. and the supernatants analyzed further or stored at −80° C. Islets that had been quick frozen were placed on ice and RIPA buffer containing protease inhibitor cocktail and phosphatase inhibitor was added. Lysis was carried out by gently pipetting or by syringe through a 30G needle. Total protein concentration in the lysate was determined by BCA or Bramhall assay, and 5-10 μg of samples prepared in SDS sample were resolved by SDS-PAGE in 4-12% Bis-Tris NuPAGE gels (Invitrogen) at 200 V for 30 min. Nonreducing gels were incubated in a solution containing 20 mM dithiothreitol (DTT) for 10 min at room temperature prior to electrotransfer.
# (§2) Immunoblotting: Transfer membranes were rinsed once in TBST (15 mM Tris, 150 mM NaCl, 0.1% Tween-20), blocked using TST plus 5% BSA for 1 h at room temperature, and then washed four times (5 min each) in TBST. Primary antibody and secondary antibodies were diluted in TBST and each of […] incubations was 1 h at room temperature followed by 4 washes in TBST. On occasion, primary antibodies were incubated overnight at 4° C. Secondary antibodies were all HRP-conjugates. Development of immunoblots used enhanced chemiluminescence (Immobilon, Millipore, or SuperSignal West Pico PLUS, Thermo Fisher Scientific) with images captured using a Fotodyne gel imager.
# Islet Isolation: Islets were isolated by collagenase P (Roche) perfusion as described following by histopaque-1077 (Sigma-Aldrich, Inc. St. Louis) gradient purification. Islets were handpicked and studied directly or after overnight culture in RPMI 1640 medium (Corning 10-040-CV) supplemented with 10% FBS, 1% penicillin/streptomycin, 100 μg/m1 primocin, 10mM Hepes, and 1mM sodium pyruvate.
# Islet Western Blotting: Isolated islets were lysed in RIPA buffer (10 mM Tris pH 7.4, 150 mM NaCl, 0.1% SDS, 1% NP-40, 2mM EDTA) with protease and phosphatase inhibitors (Fisher Scientific) on ice for 10 min and lysates were collected after centrifugation at 4° C. for 10 min at 12000 g. Samples were prepared in Laemmli sample buffer without (non-reducing) or with (reducing) 5% β-mercaptoethanol. After boiling for 5 min, samples were analyzed by SDS-PAGE (4-12% Bis-Tris gel, (Bio-Rad Laboratories, Inc.)) and transferred to nitrocellulose membranes (Bio-Rad Laboratories, Inc.). […]
# islets = experiment: Analysis of oxidative stress in islets (CellROX Deep Red, Hoechst 33342); assay type: cell-based, mouse; details: islets after 30 wks HFD, menadione 10 μM, 3 h
# Description: Analysis of Oxidative Stress: Islets were plated onto CellCarrier™-96 ultra microplates (Perkin Elmer) in phenol red-free RPMI 1640 medium supplemented with 10% FBS, 1% penicillin/streptomycin, 100 μg/ml primocin, 10mM Hepes, and 1 mM sodium pyruvate one day prior to staining. Islets were treated with menadione (AdipoGen Life Science, 10 μM) for 3 h at 37° C. Islets were stained with CellROX® Deep Red reagent (Molecular Probes, C10422, 100 μM) and Hoechst 33342 (Invitrogen, 10 μg/ml) for 1 h at the same time. Islets were washed three times with HBSS and incubated in HBSS for imaging while temperature and CO2 were controlled. […]
# Because ER stress is linked with oxidative stress, the inventors tested whether Pdia1 deletion confers increased sensitivity to oxidants by treating islets (isolated after 30 wks of HFD) with the vitamin K analogue menadione, which can render cells susceptible to apoptosis by increasing cytosolic calcium with nuclear condensation. […] In FIG. 21B, quantification of ROS mean intensity is shown. CellROX Deep Red mean intensity (divided by area) was measured by image J software. […] In FIG. 21C, quantification of nuclear mean area (μm^2) measured in Hoechst 33342 stained images by ImageJ software is shown. […] Quantification of the ratio of HMW proinsulin complexes (a) to monomeric proinsulin under reducing conditions is shown in graph (lower). […]
# [1] = tested on: proinsulin complex formation; experiment: Inhibition of ER to Golgi trafficking: proinsulin disulfide linked HMW complex formation; assay type: cell-based; details: BFA treatment; with or without cycloheximide
# Description: Also, it is contemplated that increased proinsulin synthesis predisposes to oligomer and HMW complex formation. To test the notion that increased proinsulin expression, as in T2D, may exacerbate abnormal disulfide formation, the effect of brefeldin A (BFA), which promotes retrograde COP1 trafficking from the cis-Golgi to the ER to prevent export of secretory proteins to the Golgi, and thus increasing their concentration in the ER, was tested.
# INS1E cells = experiment: Proinsulin disulfide-linked complexes in INS1E cells, nonreducing/reducing SDS-PAGE and immunoblotting (mAb CCI-17); assay type: cell-based, rat; details: INS1E cells
# Description: HEK293T human cells lines were cultured in DMEM supplemented with 10% FBS and penicillin/streptomycin.
# as §1, with “Islets that had been quick frozen were placed on ice and RIPA buffer containing protease inhibitor cocktail and phosphatase inhibitor was added.” left out, “Total protein concentration in the lysate was determined by BCA or Bramhall assay, and 5-10 μg of samples prepared in SDS sample were resolved by SDS-PAGE in 4-12% Bis-Tris NuPAGE gels (Invitrogen) at 200 V for 30 min.” left out
# The lane was then laid horizontally on top of a 10% SDS-polyacrylamide resolving gel and sealed in place in stacking gel. A single-tooth comb was introduced at one end of the stacking gel to introduce a one-dimensional reduced sample of proinsulin containing cell lysate (which runs as proinsulin monomer). The gel was run at 200 V for 45 mins in Tris-Glycine buffer pH 8.8 with electrotransfer as described above.
# as §2
# [2] = islets, NEM treatment to alkylate free sulfhydryls
smiles,measurement,setting,value
CC1=CC(=O)c2ccccc2C1=O [menadione],"HMW proinsulin complexes (49-198 kDa), increase by Pdia1 deletion vs WT islets","mouse pancreatic islets; islets after 37 wks HFD, menadione 100 μM, 1 h",this effect was even greater in islets treated with menadione
same,ROS (CellROX Deep Red stain),islets,significantly increased ROS
same,nuclear size (Hoechst 33342),islets,promoted nuclear condensation
"C[C@H]1CCC/C=C/[C@@H]2C[C@H](O)C[C@H]2[C@H](O)/C=C/C(=O)O1 [BFA, brefeldin A]",proinsulin complex formation,[1],significantly increased proinsulin complex formation
C#CCNc1nc(NCCNC(=O)CCl)nc(N(C)CCCCc2ccccc2)n1 [KSC-34],"HMW proinsulin complexes, combination with menadione","mouse pancreatic islets; WT murine islets, KSC-34 3 h then menadione 100 μM 1 h",recapitulated the effect of Pdia1 deletion upon menadione treatment
same,HMW proinsulin complexes,"mouse pancreatic islets; WT murine islets, KSC-34 alone, 3 h",slightly increased HMW complexes
C[C@@H]1C[C@@H]([C@H](O)CC2CC(=O)NC(=O)C2)C(=O)[C@@H](C)C1 [cycloheximide],proinsulin complex formation,[1],did not significantly affect the results
CCN1C(=O)C=CC1=O [N-ethylmaleimide],HMW proinsulin-containing complexes,mouse pancreatic islets; [2],slightly increased the HMW proinsulin-containing complexes
same,disulfide-linked proinsulin oligomers,mouse pancreatic islets; [2],slightly reduced the disulfide-linked oligomers
CC(C)NCCCn1c(Sc2cc(Cl)cc(Cl)c2)nc2c(N)ncnc21 [PU-WS13],proinsulin disulfide-linked complex formation triggered by acute loss of BiP,"INS1E cells; PU-WS13 20 μM 24 h, SubAB during last 3 h",did not exacerbate the proinsulin disulfide-linked complex formation
same,proinsulin disulfide-linked complex formation,"INS1E cells; PU-WS13 20 μM, 24 h",did not promote proinsulin disulfide-linked complex formation
